For seven compounds, Ki results are on record in BindingDB's records for doi:10.3109/14756366.2011.651465 (Dumlupinar University, 2013).

Structures are written as SMILES.

For one experiment, the target named is Carbonic anhydrase 1 (Homo sapiens, UniProt P00915). In words: CA Activity Assay. The conditions noted are these: pH 7.4; 25 °C. On the procedure:
(§1) CA activity was assayed in inhibition studies by following the change in absorbance at 348 nm of 4-nitrophenylacetate (NPA) to 4-nitrophenylate ion over a period of 3 min at 25°C using a spectrophotometer according to the method described by Verpoorte et al. [Verpoorte et al., J. Biol. Chem., 242:4221-4229] The enzymatic reaction, in a total volume of 1 mL, contained 50 mM Tris-SO4 buffer (pH = 7.4), 3 mM 4-nitrophenylacetate and enzyme solution. A reference measurement was done by using the same cuvette without enzyme solution. The inhibitory effects of some synthesized sulfonamide derivatives on CA enzyme activity purified from human erythrocyte were tested on three samples at each concentration used.

Another experiment deals with Carbonic anhydrase 2 (Homo sapiens, UniProt P00918). In words: CA Activity Assay. The conditions noted are these: pH 7.4; 25 °C. On the procedure:
as §1

Chain of Carbonic anhydrase 1 (P00915 whole entry): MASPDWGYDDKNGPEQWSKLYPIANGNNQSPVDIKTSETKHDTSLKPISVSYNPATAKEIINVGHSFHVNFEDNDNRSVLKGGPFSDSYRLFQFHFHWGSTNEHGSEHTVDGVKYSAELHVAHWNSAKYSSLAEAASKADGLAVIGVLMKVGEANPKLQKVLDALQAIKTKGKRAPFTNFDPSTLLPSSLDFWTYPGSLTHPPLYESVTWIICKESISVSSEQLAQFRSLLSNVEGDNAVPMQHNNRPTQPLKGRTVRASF

`Nc1cccc(-n2nc(C(=O)Nc3ccc(S(N)(=O)=O)cc3)c(C(=O)c3ccccc3)c2-c2ccccc2)c1` [1-(3-aminophenyl)-4-benzoyl-5-phenyl-N-(4-sulfamoylphenyl)-1H-pyrazole-3-carboxamide (3)]: the Ki came out at 108 nM at Carbonic anhydrase 1 and 55 nM on Carbonic anhydrase 2.

On to `[N-]=[N+]=Nc1cccc(-n2nc(C(=O)Nc3ccc(S(N)(=O)=O)cc3)c(C(=O)c3ccccc3)c2-c2ccccc2)c1` [1-(3-azidophenyl)-4-benzoyl-5-phenyl-N-(4-sulfamoylphenyl)-1H-pyrazole-3-carboxamide (9)], for which the Ki was 129 nM at Carbonic anhydrase 1 and 64 nM on Carbonic anhydrase 2.

For the compound `NS(=O)(=O)c1ccc(NC(=O)c2nn(-c3cccc(NN=C(C(=O)c4ccccc4)C(=O)c4ccccc4)c3)c(-c3ccccc3)c2C(=O)c2ccccc2)cc1` [4-benzoyl-1-(3-(2-(1,3-dioxo-1,3-diphenylpropan-2-ylidene)hydrazinyl)phenyl)-5-phenyl-N-(4-sulfamoylphenyl)-1H-pyrazole-3-carboxamide (6)], the Ki came to 4100 nM at Carbonic anhydrase 1 and 1940 nM on Carbonic anhydrase 2.

Take `CC(=O)C(=NNc1cccc(-n2nc(C(=O)Nc3ccc(S(N)(=O)=O)cc3)c(C(=O)c3ccccc3)c2-c2ccccc2)c1)C(C)=O` [4-benzoyl-1-(3-((2-hydroxy-4-oxopent-2-en-3-yl)diazenyl)phenyl)-5-phenyl-N-(4-sulfamoylphenyl)-1H-pyrazole-3-carboxamide (5)]: the results for the Ki on Carbonic anhydrase 1 and at Carbonic anhydrase 2 were 160 nM and 595 nM, respectively.

As for `CC(=O)/C(=N\Nc1cccc(-n2nc(C(=O)Nc3ccc(S(N)(=O)=O)cc3)c(C(=O)c3ccccc3)c2-c2ccccc2)c1)C(=O)c1ccccc1` [4-benzoyl-1-(3-((3-hydroxy-1-oxo-1-phenylbut-2-en-2-yl)diazenyl)phenyl)-5-phenyl-N-(4-sulfamoylphenyl)-1Hpyrazole-3-carboxamide (7)], the Ki on Carbonic anhydrase 1 came out at 521 nM; at Carbonic anhydrase 2, 166 nM.

For the compound `NS(=O)(=O)c1ccc(NC(=O)c2nn(-c3cccc([N+](=O)[O-])c3)c(-c3ccccc3)c2C(=O)c2ccccc2)cc1` [4-benzoyl-1-(3-nitrophenyl)-5-phenyl-N-(4-sulfamoylphenyl)-1H-pyrazole-3-carboxamide (2)], the Ki on Carbonic anhydrase 1 was 215 nM; at Carbonic anhydrase 2, 337 nM.

With `CCOC(=O)/C(=N/Nc1cccc(-n2nc(C(=O)Nc3ccc(S(N)(=O)=O)cc3)c(C(=O)c3ccccc3)c2-c2ccccc2)c1)C(=O)c1ccccc1` [Ethyl-2-(2-(3-(4-benzoyl-5-phenyl-3-(4-sulfamoylphenylcarbamoyl)-1H-pyrazol-1-(phenyl)hydrazono)-3-oxo-3-phenylpropanoate (8)], the Ki on Carbonic anhydrase 1 is 2900 nM; at Carbonic anhydrase 2, 8240 nM.

As usually defined, the Ki is a dissociation constant, usually derived from enzyme kinetics or from competition with a known ligand. Lower therefore signals tighter binding.
